In patent publication US20250195521A1 (Revolution Medicines, Inc., priority 2020, published 2025):

Legend:
Assay type in all cases: biochemical
[1] = target: KRAS G13C binding to BRAF RBD (Homo sapiens (Human), UniProt P01116+P62937, G13C); test: Ras-Raf disruption/FRET/MOA assay, KRAS G13C
From the text: Disruption of B-Raf Ras-binding Domain (BRAF^RBD) Interaction with K-Ras by Compounds of the Invention (also called a FRET assay or an MOA assay)
Note—The following protocol describes a procedure for monitoring disruption of K-Ras G12C(GMP-PNP) binding to BRAF^RBD by a compound of the invention. This protocol may also be executed substituting other Ras proteins or nucleotides.
The purpose of this biochemical assay was to measure the ability of test compounds to facilitate ternary complex formation between a nucleotide-loaded K-Ras isoform and Cyclophilin A; the resulting ternary complex disrupts binding to a BRAF^RBD construct, inhibiting K-Ras signaling through a RAF effector. Data is reported as IC50 values.
In assay buffer containing 25 mM HEPES pH 7.3, 0.002% Tween20, 0.1% BSA, 100 mM NaCl and 5 mM MgCl2, tagless Cyclophilin A, His6-K-Ras-GMPPNP, and GST-BRAF^RBD were combined in a 384-well assay plate at final concentrations of 25 μM, 12.5 nM and 50 nM, respectively. Compound was present in plate wells as a 10-point 3-fold dilution series starting at a final concentration of 30 μM. After incubation at 25° C. for 3 hours, a mixture of Anti-His Eu—W1024 and anti-GST allophycocyanin was then added to assay sample wells at final concentrations of 10 nM and 50 nM, respectively, and the reaction incubated for an additional 1.5 hours. […] Compounds that facilitate disruption of a K-Ras: RAF complex were identified as those eliciting a decrease in the TR-FRET ratio relative to DMSO control wells.

[2] = target: KRAS G12S binding to BRAF RBD (Homo sapiens (Human), UniProt P01116+P62937, G12S); test: Ras-Raf disruption/FRET/MOA assay, KRAS G12S
In short: (§1)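 First, test compounds in a 10-point 3-fold series (30 μM final top) were incubated for 3 hours at 25° C with nucleotide-loaded Ras, cyclophilin A and a BRAF RBD construct. Next, Eu anti-His and allophycocyanin anti-GST detection reagents were added for 1.5 hours. Finally, IC50s were derived from loss of TR-FRET signal against DMSO.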

[3] = target: KRAS G12V binding to BRAF RBD (Homo sapiens (Human), UniProt P01116+P62937, G12V); test: Ras-Raf disruption/FRET/MOA assay, KRAS G12V; conditions: read-out: KRAS G12V FRET IC50
In short: as §1

[4] = target: KRAS WT binding to BRAF RBD (Homo sapiens (Human), UniProt P01116+P62937); test: Ras-Raf disruption/FRET/MOA assay, KRAS WT
In short: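 Compounds (top 30 μM, 3-fold, 10 points) promote Cyclophilin A (25 μM) ternary complex with His6-Ras-GMPPNP (12.5 nM), disrupting GST-BRAF RBD (50 nM) binding; 3 h, 25°C, 25 mM HEPES pH 7.3, 100 mM NaCl, 5 mM MgCl2. Detection reagents (Eu anti-His 10 nM, APC anti-GST 50 nM) added for 1.5 h; IC50 reported.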

[5] = target: NRAS Q61K (Homo sapiens (Human), UniProt P01111+P62937, Q61K); test: Ras-Raf disruption/FRET/MOA assay (BRAF RBD, Cyclophilin A)
In short: (§2)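 Measured: compound-facilitated Cyclophilin A:Ras complex blocking RAF RBD binding. Conditions: 12.5 nM Ras-GMPPNP, 50 nM BRAF RBD, 25 μM CypA, 3 h plus 1.5 h detection. Output: IC50 from TR-FRET ratio.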

[6] = target: NRAS WT (Homo sapiens (Human), UniProt P01111+P62937); test: as above
In short: as §2

[7] = target: KRAS Q61H (Homo sapiens (Human), UniProt P01116+P62937, Q61H); test: as above
In short: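 25 μM tagless Cyclophilin A, 12.5 nM His6-Ras-GMPPNP and 50 nM GST-BRAF RBD in HEPES pH 7.3 buffer with 5 mM MgCl2, with compound (10-point 3-fold series from 30 μM final) for 3 h at 25 °C. Anti-His Eu and anti-GST APC then added for 1.5 h. IC50 from TR-FRET ratio decrease versus DMSO.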

[8] = target: NRAS Q61R (Homo sapiens (Human), UniProt P01111+P62937, Q61R); test: as above
In short: as §2

Chain of KRAS G12V binding to BRAF RBD (P01116 other isoform, or with tags, fused parts or gaps G12V): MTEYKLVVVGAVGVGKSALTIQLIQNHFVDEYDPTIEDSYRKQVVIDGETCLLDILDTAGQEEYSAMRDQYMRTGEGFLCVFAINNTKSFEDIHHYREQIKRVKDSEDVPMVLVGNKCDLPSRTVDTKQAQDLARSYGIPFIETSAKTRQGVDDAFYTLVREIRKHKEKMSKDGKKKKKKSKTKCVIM
Chain of KRAS G12V binding to BRAF RBD (P62937 whole entry): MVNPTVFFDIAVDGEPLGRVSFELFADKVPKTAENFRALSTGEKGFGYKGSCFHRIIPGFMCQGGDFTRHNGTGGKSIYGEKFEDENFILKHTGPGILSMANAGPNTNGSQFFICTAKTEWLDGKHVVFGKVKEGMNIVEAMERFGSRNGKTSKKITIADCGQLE
Chain of KRAS G13C binding to BRAF RBD (P01116 other isoform, or with tags, fused parts or gaps G13C): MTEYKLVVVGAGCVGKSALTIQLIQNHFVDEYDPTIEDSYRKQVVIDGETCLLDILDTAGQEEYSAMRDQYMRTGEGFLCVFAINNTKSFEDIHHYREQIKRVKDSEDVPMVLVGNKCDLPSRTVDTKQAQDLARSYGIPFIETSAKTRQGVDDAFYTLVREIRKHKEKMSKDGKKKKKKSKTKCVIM
Chain of KRAS G13C binding to BRAF RBD (P62937 whole entry, the tested form may be a part): as the sequence (P62937 whole entry) above
Chain of KRAS G12S binding to BRAF RBD (P01116 other isoform, or with tags, fused parts or gaps G12S): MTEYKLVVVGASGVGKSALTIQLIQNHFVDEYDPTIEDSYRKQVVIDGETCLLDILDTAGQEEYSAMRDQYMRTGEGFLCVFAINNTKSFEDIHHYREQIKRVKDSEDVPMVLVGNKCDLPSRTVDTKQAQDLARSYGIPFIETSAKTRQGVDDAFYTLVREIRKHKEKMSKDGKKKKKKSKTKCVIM
Chain of KRAS G12S binding to BRAF RBD (P62937 whole entry): as the sequence (P62937 whole entry) above
Chain of KRAS WT binding to BRAF RBD (P01116 other isoform, or with tags, fused parts or gaps): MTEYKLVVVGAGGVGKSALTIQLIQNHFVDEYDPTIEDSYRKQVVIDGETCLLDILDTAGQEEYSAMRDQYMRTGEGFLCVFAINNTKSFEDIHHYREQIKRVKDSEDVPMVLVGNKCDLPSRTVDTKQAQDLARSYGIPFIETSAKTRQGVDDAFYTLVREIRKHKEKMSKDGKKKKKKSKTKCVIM
Chain of KRAS WT binding to BRAF RBD (P62937 whole entry): as the sequence (P62937 whole entry) above
Chain of NRAS Q61R (P01111 whole entry Q61R): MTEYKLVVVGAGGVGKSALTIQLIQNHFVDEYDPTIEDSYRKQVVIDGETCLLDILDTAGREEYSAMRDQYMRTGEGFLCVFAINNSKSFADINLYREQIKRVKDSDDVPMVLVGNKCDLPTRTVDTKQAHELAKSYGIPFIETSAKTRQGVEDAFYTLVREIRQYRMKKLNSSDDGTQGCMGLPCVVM
Chain of NRAS Q61R (P62937 whole entry): as the sequence (P62937 whole entry) above
Chain of KRAS Q61H (P01116 other isoform, or with tags, fused parts or gaps Q61H): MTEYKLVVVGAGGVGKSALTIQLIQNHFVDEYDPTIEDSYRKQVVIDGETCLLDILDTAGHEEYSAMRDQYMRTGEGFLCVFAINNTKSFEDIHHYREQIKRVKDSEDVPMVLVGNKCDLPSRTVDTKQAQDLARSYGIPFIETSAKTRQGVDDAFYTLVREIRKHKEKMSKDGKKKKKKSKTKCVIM
Chain of KRAS Q61H (P62937 whole entry): as the sequence (P62937 whole entry) above
Chain of NRAS Q61K (P01111 whole entry Q61K): as the sequence (P01111 whole entry Q61R) above, with R61K counted along it
Chain of NRAS Q61K (P62937 whole entry): as the sequence (P62937 whole entry) above
Chain of NRAS WT (P01111 whole entry): as the sequence (P01111 whole entry Q61R) above, with R61Q counted along it
Chain of NRAS WT (P62937 whole entry): as the sequence (P62937 whole entry) above

SMILES | IC50 [1] [nM] | IC50 [2] [nM] | IC50 [3] [nM] | IC50 [4] [nM] | IC50 [5] [nM] | IC50 [6] [nM] | IC50 [7] [nM] | IC50 [8] [nM]
CCn1c(-c2cccnc2[C@H](C)OC)c2c3cc(ccc31)-c1cc(O)cc(c1)C[C@H](NC(=O)[C@H](C(C)C)N(C)C(=O)C1CC(=O)N(C3CC3)C1)C(=O)N1CCC[C@H](N1)C(=O)OCC(C)(C)C2 (some centres unmarked) [Compound A252] | < 10 |  |  |  |  |  |  | 
CCn1c(-c2cnccc2COC)c2c3cc(ccc31)-c1cc(O)cc(c1)C[C@H](NC(=O)[C@H](C(C)C)N(C)C(=O)N1CCNCC1)C(=O)N1CCC[C@H](N1)C(=O)OCC(C)(C)C2 [Compound A255] | < 10 | 10 to 100 |  |  |  |  |  | 
CCn1c(-c2cccnc2[C@H](C)OC)c2c3cc(ccc31)-c1csc(n1)C[C@H](NC(=O)[C@H](C(C)C)N(C)C(=O)N1C[C@@H](C)N(C)C[C@@H]1C)C(=O)N1CCC[C@H](N1)C(=O)OCC(C)(C)C2 [Compound A292] | < 10 | 10 to 100 | 10 to 100 |  |  |  |  | 
CCn1c(-c2cccnc2[C@H](C)OC)c2c3cc(ccc31)-c1csc(n1)C[C@H](NC(=O)[C@H](C(C)C)N(C)C(=O)N1CC(N3CCOCC3)C1)C(=O)N1CCC[C@H](N1)C(=O)OCC(C)(C)C2 [Compound A338] | < 10 | 10 to 100 | 10 to 100 | 10 to 100 |  |  |  | 
CCn1c(-c2cccnc2[C@H](C)OC)c2c3cc(ccc31)-c1csc(n1)C[C@H](NC(=O)[C@H](C(C)C)N(C)C(=O)N1CC3(CCN(C)C3)C1)C(=O)N1CCC[C@H](N1)C(=O)OCC(C)(C)C2 [Compound A602] |  | 10 to 100 | 10 to 100 | 10 to 100 | 100 to 1000 | 100 to 1000 | 100 to 1000 | 100 to 1000
